Common to all, as to assay type: cell-based
In assay [1] the test system is VRE (E. faecalis) ATCC 51575. Kind of assay: MIC, broth microdilution. The following applies: VRE (E. faecalis) ATCC 51575; read-out: MIC. As to the method:
(§1) Bacteria were cultured in cation-adjusted Mueller Hinton Broth (for strains in Tables 1 and 4) or Brain Heart Infusion broth (for Enterococcus faecium) or Tryptic Soy Broth (all other bacteria) in a 96-well plate at 37° C. for at least 20 hours. The MIC was classified as the lowest concentration where no visual growth of bacteria was observed. The minimum bactericidal concentration (MBC) was tested by spotting 4 μL from wells with no growth onto Tryptic Soy Agar (TSA) plates. Plates were incubated at 37° C. for at least 18 hours before recording the MBC.

Another assay has as its system MRSA ATCC 33592. Kind of assay: MIC, broth microdilution. The following applies: Staphylococcus aureus; MRSA ATCC 33592; read-out: MIC. The method, then: as §1
Another assay relates to E. faecalis ATCC 29212. Kind of assay: MIC, broth microdilution. The following applies: Enterococcus faecalis, ATCC29212; E. faecalis ATCC 29212; read-out: MIC. The method, then: as §1
(In broth dilution the organism is exposed to a series of concentrations in liquid medium.)

Assay [2] deals with L. monocytogenes ATCC 19115. Kind of assay: MIC, broth microdilution. The following applies: Listeria monocytogenes, ATCC19115; L. monocytogenes ATCC 19115; read-out: MIC. As to the method: as §1
The test system of another assay is S. aureus ATCC 25923. As to the kind of experiment: MIC, broth microdilution. The following applies: Staphylococcus aureus, ATCC25923; S. aureus ATCC 25923; read-out: MIC. The method, then:
as §1

The subject of assay [3] is S. aureus. As to the kind of experiment: Screening of compounds for growth inhibition of S. aureus at 16 μg/mL (OD600). The following applies: compound at 16 μg/mL, 24 hours, compared to DMSO control. The method, then: Library compounds and analogs of F6 were dissolved in DMSO at 10 mg/mL. S. aureus was cultured in Mueller Hinton Broth to early exponential phase at which point culture aliquots were incubated with compounds at 16 μg/mL or DMSO in duplicates. The culture was continued at 37° C. for 24 hours. Aliquots (100 μL) of the cultures were dispensed into clear 96 well microtiter plates and OD600 was recorded. Percent normalized OD600 was obtained by using the equation [formula] wherein for a given compound, X is the OD600 of culture with the compound, Xo is that of media only and XT is the OD600 of the DMSO control.

The subject of assay [4] is C. difficile NR-13432 (isolate 6). As to the kind of experiment: Clostridium difficile inhibition analysis. The following applies: Table 7, C. difficile NR-13432 (isolate 6).
Assay [5] relates to C. difficile NR-32895 (P19). Kind of assay: Clostridium difficile inhibition analysis. The following applies: Table 7, C. difficile NR-32895 (P19).
The test system of assay [6] is C. difficile NR-32891 (P13). Kind of assay: Clostridium difficile inhibition analysis. The following applies: Table 7, C. difficile NR-32891 (P13).
In assay [7] the test system is C. difficile NR-13435 (isolate 9). As to the kind of experiment: Clostridium difficile inhibition analysis. The following applies: Table 7, C. difficile NR-13435 (isolate 9).
The test system of assay [8] is C. difficile NR-32904 (P30). As to the kind of experiment: Clostridium difficile inhibition analysis. The following applies: Table 7, C. difficile NR-32904 (P30).
For assay [9], the system named is C. difficile NR-32883 (P2). As to the kind of experiment: Clostridium difficile inhibition analysis. The following applies: Table 7, C. difficile NR-32883 (P2).
Assay [10] relates to Clostridium difficile ATCC BAA 1801. As to the kind of experiment: Clostridium difficile inhibition analysis. The following applies: Table 7, C. difficile ATCC BAA 1801.
In assay [11] the test system is Clostridium difficile ATCC 43255. Kind of assay: Clostridium difficile inhibition analysis. The following applies: Table 7, C. difficile ATCC 43255.
For assay [12], the system named is S. aureus. Kind of assay: MIC (Table 5, strain not given). The following applies: Staphylococcus aureus; S. aureus (Table 5). As to the method:
as §1

Each structure is given as a SMILES string. ≈ marks a conversion by molar mass, not a printed value.

On to `COc1cccc(-c2nnc(NC(=O)c3ccc(S(=O)(=O)N(C)CC4CCCO4)cc3)o2)c1` (centres unmarked) [Compound G8], for which the MIC (in assay [1]; in the assay on MRSA ATCC 33592; with E. faecalis ATCC 29212; in assay [2]; in the assay with S. aureus ATCC 25923) was 32 µg/mL (≈ 67.7 µM) throughout. Moreover, the “inhibition of growth of S. aureus” value with S. aureus [3] was “significantly inhibited the growth”.
With `CC1CC(C)CN(S(=O)(=O)c2cncc(C(=O)Nc3nnc(-c4ccc(C(F)(F)F)cc4)o3)c2)C1` (centres unmarked) [HSGN 216, 5-((3,5-dimethylpiperidin-1-yl)sulfonyl)-N-(5-(4-(trifluoromethyl)phenyl)-1,3,4-oxadiazol-2-yl)nicotinamide], the Antibacterial activity in assay [4] is recorded as 0.125; in assay [5], 0.125; in assay [6] it was 0.5; in assay [7], 0.125; in [8], 0.5; in [9] it was 0.06. The compound also had an Antibacterial activity in assay [10] of 0.25.
Turning to `CC1CCCCN1S(=O)(=O)c1ccc(C(=O)Nc2nnc(-c3cccs3)o2)cc1` (centres unmarked) [Compound F5], the MIC in [1] was 16 µg/mL (≈ 37 µM); with MRSA ATCC 33592, 8 µg/mL (≈ 18.5 µM); in the assay with E. faecalis ATCC 29212, 16 µg/mL (≈ 37 µM); in assay [2] it was 16 µg/mL (≈ 37 µM); with S. aureus ATCC 25923, 8 µg/mL (≈ 18.5 µM). Also, the “inhibition of growth of S. aureus” value in the assay on S. aureus [3] was “significantly inhibited the growth”.
For `CC1CC(C)CN(S(=O)(=O)c2ccc(C(=O)Nc3nnc(-c4ccc(Cl)cc4)o3)cc2)C1` (centres unmarked) [Compound F6-5, N-(5-(4-Chlorophenyl)-1,3,4-oxadiazol-2-yl)-4-((3,5-dimethylpiperidin-1-yl)sulfonyl)benzamide], the MIC in assay [1] came to 2 µg/mL (≈ 4.21 µM); with MRSA ATCC 33592 it was 1 µg/mL (≈ 2.11 µM); in the assay on E. faecalis ATCC 29212, 4 µg/mL (≈ 8.42 µM); in [2], 2 µg/mL (≈ 4.21 µM); with S. aureus ATCC 25923 it was 2 µg/mL (≈ 4.21 µM). Further, the “inhibition of growth of S. aureus” value with S. aureus [3] is given as “active”.
With `O=C(Nc1nnc(-c2cccs2)s1)c1ccc(S(=O)(=O)N2CCCCC2)cc1` [Compound F4], the minimal inhibitory concentration (MIC) in [1] is 32 µg/mL (≈ 73.6 µM); with MRSA ATCC 33592, 16 µg/mL (≈ 36.8 µM); in the assay with E. faecalis ATCC 29212 it was 32 µg/mL (≈ 73.6 µM); in [2], 16 µg/mL (≈ 36.8 µM); in the assay with S. aureus ATCC 25923 it was 16 µg/mL (≈ 36.8 µM). Also, the “inhibition of growth of S. aureus” value with S. aureus [3] was “significantly inhibited the growth”.
Consider `CN(C)S(=O)(=O)c1ccc(C(=O)Nc2nnc(-c3ccc(F)cc3)o2)cc1` [Compound F3], for which the minimal inhibitory concentration (MIC) in assay [1] came to 32 µg/mL (≈ 82 µM); with MRSA ATCC 33592 it was 16 µg/mL (≈ 41 µM); with E. faecalis ATCC 29212 it was 32 µg/mL (≈ 82 µM); in [2], 32 µg/mL (≈ 82 µM); in the assay with S. aureus ATCC 25923, 16 µg/mL (≈ 41 µM). Also, the “inhibition of growth of S. aureus” value in the assay on S. aureus [3] is recorded as “significantly inhibited the growth”.
Consider `C[C@@H]1C[C@H](C)CN(S(=O)(=O)c2csc(C(=O)Nc3nnc(-c4ccc(C(F)(F)F)cc4)o3)c2)C1` [HSGN-193, 4-(((3S,5R)-3,5-dimethylpiperidin-1-yl)sulfonyl)-N-(5-(4-(trifluoromethyl)phenyl)-1,3,4-oxadiazol-2-yl)thiophene-2-carboxamide], for which the Antibacterial activity amounted to 0.125 in assay [4]; 0.25 in assay [11]; 0.25 in assay [5]; 0.5 in assay [6]; 0.125 in assay [7]; 0.5 in assay [8]. The Antibacterial activity in assay [9] is listed as 0.125; in [10], 0.25. For the same compound, the minimum inhibitory concentration (MIC) with MRSA ATCC 33592 was determined as 1 µg/mL (≈ 1.94 µM); in the assay on S. aureus [12], 0.5 µg/mL (≈ 0.972 µM).

As usually defined, the MIC is the lowest concentration found to suppress growth.

(Values after patent US11731964B2, “Benzamide antibacterial agents” (Purdue Research Foundation, priority 2018, dated 2023).)
